Experimental data as given in patent EP1007530B1, “6-O-SUBSTITUTED ERYTHROMYCIN COMPOUNDS AND METHOD FOR MAKING SAME” (ABBOTT LABORATORIES, priority 1996, dated 1997).

Legend:
Experiment in all cases: In vitro assay of antibacterial activity (agar dilution MIC)
Format in all cases: cell-based
[1] = system: Staphylococcus aureus A-5278; details: BHI agar, 35-37 °C, 20 to 24 hours, unit assumed
Description: (§1) Representative compounds of the present invention were assayed in vitro for antibacterial activity as follows: Twelve petri dishes containing successive aqueous dilutions of the test compound mixed with 10 mL of sterilized Brain Heart Infusion (BHI) agar (Difco 0418-01-5) were prepared. Each plate was inoculated with 1:100 (or 1:10 for slow-growing strains, such as Micrococcus and Streptococcus) dilutions of up to 32 different microorganisms, using a Steers replicator block. The inoculated plates were incubated at 35-37 °C for 20 to 24 hours, In addition, a control plate, using BHI agar containing no test compound, was prepared and incubated at the beginning and end of each test.
(§2) An additional plate containing a compound having known susceptibility patterns for the organisms being tested and belonging to the same antibiotic class as the test compound was also prepared and incubated as a further control, as well as to provide test-to-test comparability. Erythromycin A was used for this purpose.
(§3) After incubation, each plate was visually inspected. The minimum inhibitory concentration (MIC) was defined as the lowest concentration of drug yielding no growth, a slight haze, or sparsely isolated colonies on the inoculum spot as compared to the growth control. […]

Candida albicans CCH 442 = details: BHI agar, 35-37 °C, 20 to 24 hours, unit assumed
Description: as §1, §2, §3

Escherichia coli KNK 437 = details: BHI agar, 35-37 °C, 20 to 24 hours, unit assumed
Description: as §1, §2, §3

[2] = system: Staphylococcus aureus CMX 553; details: BHI agar, 35-37 °C, 20 to 24 hours, unit assumed
Description: as §1, §2, §3

[3] = system: Pseudomonas aeruginosa 5007; details: BHI agar, 35-37 °C, 20 to 24 hours, unit assumed
Description: as §1, §2, §3

[4] = system: Nocarrdia asteroides ATCC 9970; details: BHI agar, 35-37 °C, 20 to 24 hours, unit assumed
Description: as §1, §2, §3

[5] = system: Streptococcus agalactiae CMX 508; details: BHI agar, 35-37 °C, 20 to 24 hours, unit assumed
Description: as §1, §2, §3

[6] = system: Staphylococcus aureus ATCC 6538P; details: BHI agar, 35-37 °C, 20 to 24 hours, unit assumed
Description: as §1, §2, §3

[7] = system: Pseudomonas aeruginosa DPHD-2862; details: BHI agar, 35-37 °C, 20 to 24 hours, unit assumed
Description: as §1, §2, §3

[8] = system: Streptococcus pyogenes 930; details: BHI agar, 35-37 °C, 20 to 24 hours, unit assumed
Description: as §1, §2, §3

[9] = system: Klebsiella pneumoniae ATCC 8045; details: BHI agar, 35-37 °C, 20 to 24 hours, unit assumed
Description: as §1, §2, §3

[10] = system: Mycobacterium smegmatis ATCC 114; details: BHI agar, 35-37 °C, 20 to 24 hours, unit assumed
Description: as §1, §2, §3

[11] = system: Staphylococcus epidermidis 3519; details: BHI agar, 35-37 °C, 20 to 24 hours, unit assumed
Description: as §1, §2, §3

[12] = system: Streptococcus bovis A-5169; details: BHI agar, 35-37 °C, 20 to 24 hours, unit assumed
Description: as §1, §2, §3

[13] = system: Staphylococcus aureus CMX 642A; details: BHI agar, 35-37 °C, 20 to 24 hours, unit assumed
Description: as §1, §2, §3

[14] = system: Streptococcus pyogenes EES61; details: BHI agar, 35-37 °C, 20 to 24 hours, unit assumed
Description: as §1, §2, §3

[15] = system: Streptococcus pyogenes PIU 2548; details: BHI agar, 35-37 °C, 20 to 24 hours, unit assumed
Description: as §1, §2, §3

Escherichia coli H560 = details: BHI agar, 35-37 °C, 20 to 24 hours, unit assumed
Description: as §1, §2, §3

Pseudomonas capacia 2961 = details: BHI agar, 35-37 °C, 20 to 24 hours, in µg/mL (unit assumed)
Description: as §1, §2, §3

[16] = system: Staphylococcus aureus NCTC10649M; details: BHI agar, 35-37 °C, 20 to 24 hours, unit assumed
Description: as §1, §2, §3

[17] = system: Micrococcus luteus ATCC 9341; details: BHI agar, 35-37 °C, 20 to 24 hours, unit assumed
Description: as §1, §2, §3

Escherichia coli JUHL = details: BHI agar, 35-37 °C, 20 to 24 hours, in µg/mL (unit assumed)
Description: as §1, §2, §3

[18] = system: Pseudomonas aeruginosa K799/WT; details: BHI agar, 35-37 °C, 20 to 24 hours, unit assumed
Description: as §1, §2, §3

[19] = system: Staphylococcus aureus 1775; details: BHI agar, 35-37 °C, 20 to 24 hours, unit assumed
Description: as §1, §2, §3

[20] = system: Pseudomonas aeruginosa BMH10; details: BHI agar, 35-37 °C, 20 to 24 hours, in µg/mL (unit assumed)
Description: as §1, §2, §3

[21] = system: Enterococcus faecium ATCC 8043; details: BHI agar, 35-37 °C, 20 to 24 hours, unit assumed
Description: as §1, §2, §3

[22] = system: Enterobacter aerogenes ATCC 13048; details: BHI agar, 35-37 °C, 20 to 24 hours, unit assumed
Description: as §1, §2, §3

[23] = system: Providencia struartii CMX 640; details: BHI agar, 35-37 °C, 20 to 24 hours, unit assumed
Description: as §1, §2, §3

Escherichia coli SS = details: BHI agar, 35-37 °C, 20 to 24 hours, unit assumed
Description: as §1, §2, §3

[24] = system: Pseudomonas aeruginosa DPHD-5263; details: BHI agar, 35-37 °C, 20 to 24 hours, in µg/mL (unit assumed)
Description: as §1, §2, §3

Escherichia coli DC-2 = details: BHI agar, 35-37 °C, 20 to 24 hours, unit assumed
Description: as §1, §2, §3

[25] = system: Staphylococcus aureus A5177; details: BHI agar, 35-37 °C, 20 to 24 hours, unit assumed
Description: as §1
(§4) An additional plate containing a compound having known susceptibility patterns for the organisms being tested and belonging to the same antibiotic class as the test compound was also prepared and incubated as a further control, as well as to provide test-to-test comparability.
as §3

[26] = system: Actinetobacter calcoaceticus CMX 669; details: BHI agar, 35-37 °C, 20 to 24 hours, unit assumed
Description: as §1, §4, §3

[27] = system: Micrococcus luteus ATCC 4698; details: BHI agar, 35-37 °C, 20 to 24 hours, unit assumed
Description: as §1, §2, §3

[28] = system: Pseudomonas aeruginosa K799/61; details: BHI agar, 35-37 °C, 20 to 24 hours, unit assumed
Description: as §1, §2, §3

With `CC[C@H]1OC(=O)[C@H](C)[C@@H](O[C@H]2C[C@@](C)(OC)[C@@H](O)[C@H](C)O2)[C@H](C)[C@@H](O[C@@H]2O[C@H](C)C[C@H](N(C)C)[C@H]2O)[C@](C)(OCC(O)CN=[N+]=[N-])C[C@@H](C)C(=O)[C@H](C)[C@@H](O)[C@]1(C)O` (some centres unmarked) [Example 11, Compound of Formula (X): X is =O, R is -CH2-CHOH-CH2-N3] as the compound, how does the MIC [1] read?
Its MIC is > 100 µg/mL.

And the MIC (Candida albicans CCH 442)?
Its MIC is > 100 µg/mL.

What about the MIC (Escherichia coli KNK 437) of the same compound?
Its MIC is > 100 µg/mL.

And the MIC [2]?
The MIC was 0.78 µg/mL.

What about the MIC [3] of the same compound?
The MIC was > 100 µg/mL.

And the MIC [4]?
Its MIC is 0.1 µg/mL.

And the MIC [5]?
The MIC was 0.05 µg/mL.

What about the MIC [6] of the same compound?
The MIC was 0.78 µg/mL.

What about the MIC [7] of the same compound?
Its MIC is > 100 µg/mL.

And the MIC [8]?
The MIC was > 100 µg/mL.

And the MIC [9]?
The MIC was > 100 µg/mL.

And the MIC [10]?
Its MIC is 0.39 µg/mL.

What about the MIC [11] of the same compound?
The MIC was 0.78 µg/mL.

What about the MIC [12] of the same compound?
The MIC was 0.2 µg/mL.

And the MIC [13]?
The MIC was 1.56 µg/mL.

And the MIC [14]?
The MIC was 0.05 µg/mL.

What about the MIC [15] of the same compound?
The MIC was 25 µg/mL.

What about the MIC (Escherichia coli H560) of the same compound?
Its MIC is 50 µg/mL.

What about the MIC (Pseudomonas capacia 2961) of the same compound?
Its MIC is > 100.

What about the MIC [16] of the same compound?
The MIC was 0.78 µg/mL.

What about the MIC [17] of the same compound?
Its MIC is 0.05 µg/mL.

What about the MIC (Escherichia coli JUHL) of the same compound?
Its MIC is 100.

What about the MIC [18] of the same compound?
The MIC was > 100 µg/mL.

And the MIC [19]?
The MIC was > 100 µg/mL.

And the MIC [20]?
The MIC was > 100.

What about the MIC [21] of the same compound?
Its MIC is 0.39 µg/mL.

And the MIC [22]?
The MIC was > 100 µg/mL.

What about the MIC [23] of the same compound?
Its MIC is > 100 µg/mL.

And the MIC (Escherichia coli SS)?
Its MIC is 1.56 µg/mL.

And the MIC [24]?
The MIC was > 100.

And the MIC (Escherichia coli DC-2)?
The MIC was > 100 µg/mL.

And the MIC [25]?
Its MIC is 6.2 µg/mL.

And the MIC [26]?
The MIC was 25 µg/mL.

Which MIC [1] does the source give for `CC[C@H]1OC(=O)[C@H](C)[C@@H](O[C@H]2C[C@@](C)(OC)[C@@H](O)[C@H](C)O2)[C@H](C)[C@@H](O[C@@H]2O[C@H](C)C[C@H](N(C)C)[C@H]2O)[C@](C)(OCC=O)C[C@@H](C)C(=O)[C@H](C)[C@@H](O)[C@]1(C)O` [Example 8, Compound of Formula (X): X is =O, R is 2-oxoethyl] here?
Its MIC is > 100 µg/mL.

And the MIC (Candida albicans CCH 442)?
Its MIC is > 100 µg/mL.

What about the MIC (Escherichia coli KNK 437) of the same compound?
Its MIC is > 100 µg/mL.

And the MIC [2]?
The MIC was 0.78 µg/mL.

What about the MIC [3] of the same compound?
The MIC was > 100 µg/mL.

And the MIC [4]?
Its MIC is 0.39 µg/mL.

What about the MIC [5] of the same compound?
The MIC was 0.39 µg/mL.

What about the MIC [6] of the same compound?
The MIC was 0.78 µg/mL.

And the MIC [7]?
The MIC was > 100 µg/mL.

What about the MIC [8] of the same compound?
The MIC was > 100 µg/mL.

What about the MIC [9] of the same compound?
The MIC was > 100 µg/mL.

What about the MIC [27] of the same compound?
The MIC was 1.56 µg/mL.

And the MIC [10]?
The MIC was 6.2 µg/mL.

And the MIC [11]?
Its MIC is 0.78 µg/mL.

And the MIC [12]?
The MIC was 0.2 µg/mL.

What about the MIC [13] of the same compound?
The MIC was 0.78 µg/mL.

What about the MIC [14] of the same compound?
The MIC was 0.1 µg/mL.

And the MIC [15]?
The MIC was 25 µg/mL.

And the MIC (Escherichia coli H560)?
Its MIC is 50 µg/mL.

What about the MIC [28] of the same compound?
Its MIC is 3.1 µg/mL.

And the MIC (Pseudomonas capacia 2961)?
Its MIC is > 100.

And the MIC [16]?
The MIC was 0.78 µg/mL.

What about the MIC [17] of the same compound?
The MIC was 0.1 µg/mL.

And the MIC (Escherichia coli JUHL)?
The MIC was 100.

And the MIC [18]?
Its MIC is > 100 µg/mL.

And the MIC [19]?
Its MIC is > 100 µg/mL.

And the MIC [20]?
The MIC was > 100.

What about the MIC [21] of the same compound?
Its MIC is 0.39 µg/mL.

And the MIC [22]?
Its MIC is > 100 µg/mL.

And the MIC [23]?
The MIC was > 100 µg/mL.

And the MIC (Escherichia coli SS)?
Its MIC is 1.56 µg/mL.

What about the MIC [24] of the same compound?
The MIC was > 100.

And the MIC (Escherichia coli DC-2)?
Its MIC is > 100 µg/mL.

And the MIC [25]?
The MIC was 12.5 µg/mL.

And the MIC [26]?
Its MIC is 50 µg/mL.
